Results on 2 molecules are retold here after US20240115270A1, “DIRECT ORAL ANTICOAGULANT-ELUTING MEDICAL DEVICE” (BOSTON SCIENTIFIC SCIMED, INC., priority 2021, published 2024).

One assay has as its system heparinized bovine blood. The assay can be described thus: Clot formation on dip-coated PET fabric disks in heparinized bovine blood. The conditions noted are these: PVDF-HFP/drug 90/10 dip-coated 15 mm PET fabric disks, ACT about 190 seconds, 37° C., various time points, images FIG. 5. Here is the method:
A solution of PVDF-HFP and DOAC was prepared in 80/20 acetone/DMSO (wt/wt). The PVDF-HFP to drug ratio was 90/10 (wt/wt) and the solution solids was 0.7%. The DOAC drugs evaluated were apixaban (Eliquis®), rivaroxaban (Xarelto®) and edoxaban (Savaysa®) 15 mm diameter polyethylene terephthalate (PET) fabric disks were dip coated into the polymer/drug solution at a dip speed of 5 mm/sec. The coated disks were dried for 30 min at 125° C. in a convection oven. The drug coated disks and PVDF-HFP only control disks were placed in cups containing heparinized bovine blood adjusted to an active clotting time (ACT) of about 190 seconds using protamine. The cups were placed on an orbital shaker incubator at 37° C. and disks were removed at various time points and imaged. The disks were then dried and weighed to determine clot weight. […] The clot weights provided in FIG. 6 verify the minimal amount of thrombus formed on the DOAC treated fabric.

A further assay concerns bovine blood. The assay can be described thus: Thrombogenicity of spray-coated Watchman device in bovine blood. To be noted: bovine blood ACT=210, 15 minutes. On the procedure: A drug/polymer solution of PVDF-HFP and DOAC was prepared in 80/20 acetone/DMSO (wt/wt). The PVDF-HFP to drug ratio was 60/40 (wt/wt) and the solution solids was 2%. The DOAC drug evaluated was rivaroxaban (Xarelto). A 24 mm diameter Watchman device was spray-coated with the polymer/drug solution at a flow rate of 10 ml/hr to apply a basecoat. The device was dried for 30 min at 125° C. in a convection oven and then spray-coated with a topcoat solution (2% PVDF-HFP in 100% acetone), at a flow rate of 10 ml/hr. The total basecoat weight was 38.8 mg and the topcoat weight was 18.7 mg. The spray-coated device was then placed in PBS/Tween solution at 37° C. for 11 days to simulate in vivo drug elution. The device was then rinsed with DI water and dried. A PVDF-HFP-only coated control device was also subjected to the same incubation and rinsing protocol. The DOAC-eluting device and the control device were placed in the same container of bovine blood (ACT=210) on an orbital shaker incubator at 37° C. for 15 minutes to assess the thrombogenicity of the two devices.
A solution of PVDF-HFP and DOAC was prepared in 40/60 acetone/DMF (wt/wt). The PVDF-HFP to drug ratio was 70/30 (wt/wt) and the solution solids was 4%. The DOAC drug evaluated was apixaban. […]

With `O=C(NC[C@H]1CN(c2ccc(N3CCOCC3=O)cc2)C(=O)O1)c1ccc(Cl)s1` [rivaroxaban], the “thrombus (clots) compared to the PVDF-HFP coated control” value in the assay with heparinized bovine blood is “significantly less thrombus”. Moreover, the “thrombus formation on device versus PVDF-HFP-only coated control device” value in the assay with bovine blood (PVDF-HFP/drug 60/40 basecoat plus topcoat on 24 mm Watchman, after 11 days in PBS/Tween at 37° C., FIGS. 9A-9D) is recorded as “inhibited thrombus formation on the proximal face of the device to a greater degree than did the control device”.
`COc1ccc(-n2nc(C(N)=O)c3c2C(=O)N(c2ccc(N4CCCCC4=O)cc2)CC3)cc1` [apixaban]: the “thrombus (clots) compared to the PVDF-HFP coated control” value in the assay with heparinized bovine blood is “significantly less thrombus”. The “thrombus formation on partially coated (masked) device” value with bovine blood (PVDF-HFP/drug 70/30 basecoat plus topcoat, proximal face only, 24 mm Watchman, after 7 days in PBS/Tween at 37° C., FIG. 10B) is on record as “inhibited thrombus formation only on the proximal face of the device”.
